Experimental data from US9162992B2, “Compounds and compositions for treatment of breathing control disorders or diseases” (GALLEON PHARMACEUTICALS, INC., priority 2010, dated 2015).

Key:
[1] = system: spontaneously breathing rats; assay: Minute ventilation (MV) and cardiovascular parameters in naive rats; type: in vivo, rat; design: unit not given here
Experimental: All surgical procedures were performed under anesthesia induced by 2% isoflurane in compressed medical grade air. With rats in supine position, the right femoral vein was catheterized using polyethylene tubing (PE-50). This catheter was used for fluid and drug administration. Simultaneously, the right femoral artery was also catheterized for monitoring blood pressure and heart rate. In order to measure the respiratory parameters in spontaneously breathing rats, trachea was intubated using 13 gauge tracheal tube (2.5 mm ID, Instech Solomon, Pa.).
After establishing a stable base-line at 1.5% isoflurane, compounds (typically at a dose of 1 mpk) were administered IV, and ventilatory parameters were generated from spontaneously breathing rats, along with cardiovascular output (mean arterial pressure (MAP) and heart rate). Maximum peak minute ventilatory (MV) responses (MPR), along with changes in minute ventilation versus baseline (AMV) were obtained as shown in the tables below.

healthy subjects = assay: Ventilation, safety and pharmacokinetics in human volunteers, single-rising dose IV infusion; type: in vivo
Experimental: A randomized, double-blind, placebo-controlled nine-period single-rising dose study in three alternating cohorts of healthy subjects was conducted at a single center in conformance with Good Clinical Practice. Compound (XXXVI) was synthesized according to Good Manufacturing Practice. Three (3) Cohorts of ten subjects each were randomized to treatment in a ratio of 4:1 (8 treated, 2 placebo) in a rotating panel design. Subjects in the first cohort participated in dosing periods 1, 4, and 7, with the second cohort participating in dosing periods 2, 5, and 8, and third cohort participating in dosing period 3, 6, and 9. The subjects who received placebo in their first dosing period also received placebo in their second and third dosing periods. Similarly, drug-treated subjects received drug all three dosing periods. In the first Cohort, on the first dose only, 2 subjects were dosed on Day 1 with one subject receiving active drug and one subject receiving placebo. Following a review of available safety and tolerability data (excluding PK), the remainder of Cohort 1 was dosed the following day. Subjects were dosed as detailed in Table 11 with a minimum of 1-week washout between doses.
Subjects could be screened up to 28 days before the treatment period. On the evening before dosing, subjects were admitted to the clinical site and baseline evaluations were conducted. After an overnight fast, subjects received an intravenous infusion of Compound (XXXVI) or placebo then PD, PK, and safety evaluations were conducted during the next 24 hours. Cohort 1 was enrolled to the lowest dose group and randomized to Compound (XXXVI) or placebo. Safety and tolerability evaluations for each dose included all safety assessments obtained through approximately 24 hours post-dose.
Pharmacodynamic endpoints were assessed by two independent systems consisting of Dräger Infinity patient monitoring system and a portable NOX-T3 respiratory monitoring system. The Dräger system is an inpatient intensive care/postoperative monitoring system used to monitor minute ventilation, respiratory rate (RR), tidal volume (VT) via a pneumotachometer (Capnostat sensor), transcutaneous oxygen hemoglobin saturation (SpO2), and end tidal carbon dioxide (ETCO2) (Capnostat sensor). NOX/T3 is a portable monitoring device used for home diagnostic sleep apnea assessments. In this study, NOX device monitored RR, VT via respiratory inductance plethysmography (RIP), SpO2 (Nonin), actigraphy, nasal air flow, and audio recording of the dosing session. In addition to monitoring pharmacodynamic effects, the Dräger system was also used to monitor subject real-time safety. Standard safety assessments were measured repeatedly throughout the dosing session, and consisted of vital signs (BP, HR, RR, temperature (oral)), Ramsay Sedation Scale (RSS), and pulmonary function testing.
Test Product, Dose, Mode of Administration, Batch and Lot No(s): Compound (XXXVI) was prepared as a sterile product for injection ready for dilution in normal saline and administration by infusion. Doses were based on the subject's weight on a milligram per kilogram basis and were administered over a 1-, 2-, 3- or 4-hour infusion as described in Table 11. Compound (XXXVI) (Batch No. 04110511) was provided by the Sponsor as a 50 mL fill of 10 mg/mL solution (GAL-021 freebase) in 20 mM citrate for IV Injection; Saline was sourced by the Investigator from Baxter, Lot 11F03E7L.
Thirty (30) subjects received single IV infusions over 1, 2, 3, or 4 hours on the first day of each of 3 periods for a total of 3 dosing days per subject. Per protocol, there was to be a minimum one week washout between doses of Compound (XXXVI) for all subjects. Actual washout periods ranged from 9 to 20 days overall.
Pharmacodynamic (PD) evaluations included tidal volume, respiratory rate, minute ventilation, end-tidal CO2, and transcutaneous hemoglobin oxygen saturation (SpO2). […]

pKa = type: physicochemical
[2] = 1 mpk IV, 15% DMA 85% D5W, pH 5-6
[3] = Table 8, 1 mpk, 20% HPβCD, pH 5
[4] = IV infusion 0.102 to 2.16 mg/kg, 1 to 4 hours

Structure (SMILES): CCCNc1nc(NCCC)nc(N(C)OC)n1 [XXXV, N-(4,6-Bis-n-propylamino-[1,3,5]triazin-2-yl)-N,O-dimethyl-hydroxylamine]
- MV MPR [1, 2]: 207
- MV ΔMV [1, 2]: 135
- MV MPR ([1]; 1 mpk IV, 20% HPβCD, pH 4-5): 344
- MV ΔMV ([1]; 1 mpk IV, 20% HPβCD, pH 4-5): 210
- MV DMV [1, 3]: 164
- MV MPR [1, 3]: 267

Structure (SMILES): CCCNc1nc(NCCC)nc(N(C)OC)n1.O=S(=O)(O)O [XXXVI, N-(4,6-Bis-n-propylamino-[1,3,5]triazin-2-yl)-N,O-dimethyl-hydroxylamine hydrogen sulfate]
- increase in tidal volume (healthy subjects; 0.016 mg/kg dose (so in the source)): < 10%
- minute ventilation (healthy subjects; 0.016 mg/kg/min x 1 hour): stimulated minute ventilation
- safety and tolerability (healthy subjects; 0.102-2.16 mg/kg IV, durations 1 to 4 hours): generally safe and well tolerated
- dose proportionality of concentration at 1 hour and AUC (healthy subjects; [4]): dose proportional
- pharmacokinetic behaviour (healthy subjects; [4]): well-behaved pharmacokinetically
- change in respiratory rate (healthy subjects; all doses): < 10%
- increase in minute ventilation (healthy subjects; highest infusion rate (0.016 mg/kg/min x 1 hour), first 2 hours after start of infusion): ~27%
- pKa (pKa): 5.6
